According to patent US20030129629A1, “Methods and compositions for the identification, assessment, prevention, and therapy of human cancers” (Millennium Pharmaceuticals, Inc., priority 2000, published 2003):
Where two headings read alike, the source gives them in different places.

Key:
[1] = tested on: 60 cancer cell lines (NCI 60 cancer cell line series); conditions: cited from earlier work
[2] = tested on: 60 cancer cell lines (NCI 60 cancer cell line series); assay: NCI-DTP in vitro cancer screen, sulforhodamine B (SRB) growth inhibition, 48 hour exposure; assay type: cell-based, human
Procedure, shortened: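 Potency is given as mean −log{GI50} from dose–response curves, manually binned into Low, Medium or High sensitivity. Sixty NCI-DTP tumour lines were treated 48 h with a duplicate, five-dose, ten-fold dilution series, and growth read by SRB staining of cell mass.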

## O=c1[nH]cc(F)c(=O)[nH]1 [5-Fluorouracil]
[1]; Melanoma SK-MEL-2 CL10005
  −Log (GI50): 3.3
[1]; Melanoma SK-MEL-5 CL10007
  −Log (GI50): 4.9
[1]; Melanoma SK-MEL-28 CL10008
  −Log (GI50): 4.5
[1]; Melanoma UACC-62 CL10020
  −Log (GI50): 4.9
[1]; Melanoma UACC-257 CL10021
  −Log (GI50): 3.9
[1]; NSCLC A549/ATCC CL1004
  −Log (GI50): 5.7
[1]; NSCLC EKVX CL1008
  −Log (GI50): 3.3
[1]; NSCLC HOP-62 CL1026
  −Log (GI50): 4.8
[1]; NSCLC HOP-92 CL1029
  −Log (GI50): 4.0
[1]; NSCLC NCI-H226 CL1013
  −Log (GI50): 3.6
[2]; Breast BT-549 CL5013
  classification of cell line as Low(1), Medium(2), High(3) sensitivity to compound: 1
[2]; Breast HS-578T CL5006
  classification of cell line as Low(1), Medium(2), High(3) sensitivity to compound: 1
[2]; Breast MCF7(I) CL5001
  classification of cell line as Low(1), Medium(2), High(3) sensitivity to compound: 3
[2]; Breast MCF7/ADRr CL5002
  classification of cell line as Low(1), Medium(2), High(3) sensitivity to compound: 2
[2]; Breast MDA-MB-231 CL5005
  classification of cell line as Low(1), Medium(2), High(3) sensitivity to compound: 1
[2]; Breast MDA-MB-435 CL5011
  classification of cell line as Low(1), Medium(2), High(3) sensitivity to compound: 2
[2]; Breast MDA-N CL5012
  classification of cell line as Low(1), Medium(2), High(3) sensitivity to compound: 2
[2]; Breast T-47D CL5014
  classification of cell line as Low(1), Medium(2), High(3) sensitivity to compound: 2
[2]; CNS SF-268 CL12014
  classification of cell line as Low(1), Medium(2), High(3) sensitivity to compound: 2
[2]; CNS SF-295 CL12015
  classification of cell line as Low(1), Medium(2), High(3) sensitivity to compound: 2
[2]; CNS SF-539 CL12016
  classification of cell line as Low(1), Medium(2), High(3) sensitivity to compound: 3
[2]; CNS SNB-19 CL12002
  classification of cell line as Low(1), Medium(2), High(3) sensitivity to compound: 1
[2]; CNS SNB-75(I) CL12005
  classification of cell line as Low(1), Medium(2), High(3) sensitivity to compound: 1
[2]; CNS U251(I) CL12009
  classification of cell line as Low(1), Medium(2), High(3) sensitivity to compound: 2
[2]; Colon COLO-250 CL4010
  classification of cell line as Low(1), Medium(2), High(3) sensitivity to compound: 2
[2]; Colon HCC-2998 CL4002
  classification of cell line as Low(1), Medium(2), High(3) sensitivity to compound: 3
[2]; Colon HCT-15 CL4015
  classification of cell line as Low(1), Medium(2), High(3) sensitivity to compound: 2
[2]; Colon HCT-116 CL4003
  classification of cell line as Low(1), Medium(2), High(3) sensitivity to compound: 3
[2]; Colon HT29(I) CL4001
  classification of cell line as Low(1), Medium(2), High(3) sensitivity to compound: 2
[2]; Colon KM12 CL4017
  classification of cell line as Low(1), Medium(2), High(3) sensitivity to compound: 2
[2]; Colon SW-620 CL4009
  classification of cell line as Low(1), Medium(2), High(3) sensitivity to compound: 2
[2]; Leukemia CCRF-CEM(I) CL7003
  classification of cell line as Low(1), Medium(2), High(3) sensitivity to compound: 2
[2]; Leukemia HL-60(I) CL7008
  classification of cell line as Low(1), Medium(2), High(3) sensitivity to compound: 2
[2]; Leukemia K562(I) CL7005
  classification of cell line as Low(1), Medium(2), High(3) sensitivity to compound: 2
[2]; Leukemia MOLT-4 CL7006
  classification of cell line as Low(1), Medium(2), High(3) sensitivity to compound: 2
[2]; Leukemia RPMI-8226(I) CL7010
  classification of cell line as Low(1), Medium(2), High(3) sensitivity to compound: 3
[2]; Leukemia SR CL7019
  classification of cell line as Low(1), Medium(2), High(3) sensitivity to compound: 2
[2]; Melanoma LOX IMVI CL10001
  classification of cell line as Low(1), Medium(2), High(3) sensitivity to compound: 2
[2]; Melanoma M14 CL10014
  classification of cell line as Low(1), Medium(2), High(3) sensitivity to compound: 2
[2]; Melanoma MALME-3M CL10002
  classification of cell line as Low(1), Medium(2), High(3) sensitivity to compound: 2
[2]; Melanoma SK-MEL-2 CL10005
  classification of cell line as Low(1), Medium(2), High(3) sensitivity to compound: 1
[2]; Melanoma SK-MEL-28 CL10008
  classification of cell line as Low(1), Medium(2), High(3) sensitivity to compound: 2
[2]; NSCLC NCI-H23(I) CL1001
  sensitivity classification Low(1)/Medium(2)/High(3): 2
[2]; NSCLC NCI-H332M CL1017
  sensitivity classification Low(1)/Medium(2)/High(3): 2
[2]; NSCLC NCI-H460 CL1021
  sensitivity classification Low(1)/Medium(2)/High(3): 3
[2]; NSCLC NCI-H522 CL1003
  sensitivity classification Low(1)/Medium(2)/High(3): 2
[2]; Ovarian IGROV1 CL6010
  sensitivity classification Low(1)/Medium(2)/High(3): 2
[2]; Ovarian OVCAR-3 CL6001
  sensitivity classification Low(1)/Medium(2)/High(3): 2
[2]; Ovarian OVCAR-4 CL6002
  sensitivity classification Low(1)/Medium(2)/High(3): 2
[2]; Ovarian OVCAR-5 CL6003
  sensitivity classification Low(1)/Medium(2)/High(3): 1
[2]; Ovarian OVCAR-8 CL6005
  sensitivity classification Low(1)/Medium(2)/High(3): 2
[2]; Ovarian SK-OV-3 CL6011
  sensitivity classification Low(1)/Medium(2)/High(3): 1
[2]; Prostate DU-145 CL11003
  sensitivity classification Low(1)/Medium(2)/High(3): 2
[2]; Prostate PC-3(I) CL11001
  sensitivity classification Low(1)/Medium(2)/High(3): 2
[2]; Renal 786-0 CL9018
  sensitivity classification Low(1)/Medium(2)/High(3): 2
[2]; Renal A498 CL9013
  sensitivity classification Low(1)/Medium(2)/High(3): 2
[2]; Renal ACHN CL9023
  sensitivity classification Low(1)/Medium(2)/High(3): 2
[2]; Renal CAKI-1 CL9015
  sensitivity classification Low(1)/Medium(2)/High(3): 3
[2]; Renal RXF-393 CL9016
  sensitivity classification Low(1)/Medium(2)/High(3): 2
[2]; Renal SN12C CL9008
  sensitivity classification Low(1)/Medium(2)/High(3): 2
[2]; Renal TK10 CL9024
  sensitivity classification Low(1)/Medium(2)/High(3): 1
[2]; Renal UO-31 CL9004
  sensitivity classification Low(1)/Medium(2)/High(3): 2
